Values quoted from earlier work as cited in patent publication US11638429B2, “Hypochlorous acid disinfectant and its production method” (SUPER AQUA INTERNATIONAL CO., LTD., priority 2020, dated 2023).

Test system: coliform
Details: versus hypochlorite ion (CLO—); FIG. 2, U.S. EPA

SMILES: OCl [hypochlorous acid (HCLO), hypochlorous acid]
- sterilization of hypochlorous acid (HCLO) relative to hypochlorite ion (CLO—): 80 times
